The record followed here is ChEMBL document CHEMBL1134816, “Synthesis of 7,8-disubstituted benzolactam-V8 and its binding to protein kinase C” (Bioorg Med Chem Lett, 2001).

SMILES strings stand for the structures.

The target in experiment [1] is Protein kinase C alpha type (Homo sapiens, UniProt P17252). As to the kind of experiment: Displacement phorbol 12,13-dibutyrate(PDBU) binding from recombinant Protein kinase C alpha.
For experiment [2], the target named is Protein kinase C delta type (Homo sapiens, UniProt Q05655). As to the kind of experiment: Binding affinity for protein kinase C delta.
For experiment [3], the target named is T1, Protein kinase C epsilon type (Homo sapiens, UniProt Q02156).
T1 sequence (Q02156 whole entry): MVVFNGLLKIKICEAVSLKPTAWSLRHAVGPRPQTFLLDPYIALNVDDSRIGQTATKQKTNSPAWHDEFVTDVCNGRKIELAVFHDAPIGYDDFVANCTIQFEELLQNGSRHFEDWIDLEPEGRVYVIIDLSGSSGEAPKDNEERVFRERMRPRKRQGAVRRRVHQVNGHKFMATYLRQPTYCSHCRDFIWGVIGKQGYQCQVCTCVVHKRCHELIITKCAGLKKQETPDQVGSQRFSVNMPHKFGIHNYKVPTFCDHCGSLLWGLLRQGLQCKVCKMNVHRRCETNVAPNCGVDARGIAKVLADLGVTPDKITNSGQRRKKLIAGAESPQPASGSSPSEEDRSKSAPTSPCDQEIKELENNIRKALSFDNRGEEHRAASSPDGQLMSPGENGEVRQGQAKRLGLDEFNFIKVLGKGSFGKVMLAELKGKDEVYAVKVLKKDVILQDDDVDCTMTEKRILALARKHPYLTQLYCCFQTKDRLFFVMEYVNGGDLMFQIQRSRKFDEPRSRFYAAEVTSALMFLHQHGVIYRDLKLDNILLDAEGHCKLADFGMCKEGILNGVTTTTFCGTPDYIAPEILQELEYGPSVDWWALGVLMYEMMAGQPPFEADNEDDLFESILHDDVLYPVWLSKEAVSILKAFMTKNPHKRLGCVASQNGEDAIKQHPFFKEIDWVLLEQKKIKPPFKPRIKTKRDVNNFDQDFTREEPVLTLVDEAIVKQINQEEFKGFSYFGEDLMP
As to the kind of experiment: Binding affinity for protein kinase C epsilon.

Protein kinase C delta type, sequence (Q05655 whole entry): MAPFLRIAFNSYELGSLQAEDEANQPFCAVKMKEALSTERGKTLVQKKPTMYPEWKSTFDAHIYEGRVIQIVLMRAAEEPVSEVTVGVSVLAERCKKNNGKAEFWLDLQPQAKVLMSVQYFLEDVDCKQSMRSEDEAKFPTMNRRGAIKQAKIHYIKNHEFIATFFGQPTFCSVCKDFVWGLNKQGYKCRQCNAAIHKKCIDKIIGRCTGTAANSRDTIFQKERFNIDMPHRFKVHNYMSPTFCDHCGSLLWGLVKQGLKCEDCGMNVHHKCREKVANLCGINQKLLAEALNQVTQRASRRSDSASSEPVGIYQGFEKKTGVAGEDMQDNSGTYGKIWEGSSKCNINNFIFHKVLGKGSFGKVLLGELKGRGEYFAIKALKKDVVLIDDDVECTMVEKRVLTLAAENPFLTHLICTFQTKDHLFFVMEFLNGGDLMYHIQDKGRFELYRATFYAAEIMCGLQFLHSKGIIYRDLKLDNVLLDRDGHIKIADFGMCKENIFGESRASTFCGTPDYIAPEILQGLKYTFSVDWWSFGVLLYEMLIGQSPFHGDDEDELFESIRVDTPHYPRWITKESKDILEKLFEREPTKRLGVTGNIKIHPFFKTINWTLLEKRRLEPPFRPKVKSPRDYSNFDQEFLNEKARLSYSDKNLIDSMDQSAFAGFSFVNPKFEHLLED

By Ki is commonly meant the equilibrium dissociation constant of an inhibitor or competing ligand from its target. In the case of `CCCCCCCCC#Cc1ccc2c(c1OC)C[C@@H](CO)NC(=O)[C@H](C(C)C)N2C`, the values for the inhibition constant Ki in experiment [1], in experiment [2] and in experiment [3] were 45.6 nM, 91.1 nM and 121 nM, respectively.

Regarding `COc1cccc2c1C[C@@H](CO)NC(=O)[C@H](C(C)C)N2C`, in experiment [1], the inhibition constant (Ki) was determined as 7160 nM.
